Converted amounts (≈) assume the structure as drawn. Like-named read-outs stand apart in the source and are kept apart here.
Assays:
S. aureus (ATCC 6538) = assay: Antibacterial MIC, standard agar cup diffusion method; format: cell-based, Staphylococcus aureus; details: Staphylococcus aureus, ATCC6538, 37 °C, 24 h, read-out: MIC S. aureus (Gram-positive)
Procedure: (§1) The antibacterial and antifungal activities of compounds, ketone 1, 2a-j, and 5a-i were evaluated in vitro against S. aureus (ATCC 6538), P. aeruginosa (ATCC 10,145), E. coli (ATCC 8739), and C. albicans (ATCC 10,231). […] Standard strains of Staphylococcus aureus (ATCC 6538), Pseudomonas aeruginosa (ATCC 10,145), and Escherichia coli (ATCC 8739) were obtained from microbiological resource center, Faculty of Agriculture, Ain Shams University, Cairo, Egypt. All isolates were maintained at -70 °C in Trypticase Soya Broth (TSB, Becton, and Dickinson) with 10% glycerol. Prior to inoculation, all isolates were subcultured at 37 °C for 24 h on Trypticase Soya Agar (TSA, Becton, and Dickinson) and TSB, respectively.
(§2) The plates were rotated slowly to ensure uniform distribution of the microorganisms and then allowed to solidify on a flat surface. After solidification, four equidistant and circular wells of 10 mm diameter were carefully punched using a sterile cork bore. Twofold serial dilutions of the tested compounds using DMSO were performed. An equal volume of 100µL of each dilution was applied separately to each well in three replicates using a micropipette. All plates were incubated at 37 °C for 24 h. The inhibition zones were measured, and their average was calculated.

[1] = Solubility determination in phosphate buffer; format: physicochemical; details: aqueous buffer, thermodynamic from solid
Procedure: A sample of drug was accurately weighed and dissolved in 100 ml of distilled water to prepare 100 mcg/ml stock solutions. Appropriate dilution of the stock solution with phosphate buffer pH 6.8 and 7.8 was then made to prepare a working solution of 40mcg/ml.
After determination of λ max of drug, a calibration curve was constructed by preparing solutions containing different concentrations of (1–5 mcg/ml) from stock solution after appropriate dilution with phosphate buffer pH 6.8. The UV absorbance of the prepared sample solutions were measured at the predetermined λ max using phosphate buffer pH 6.8 as a blank.
Aqueous solubility of the complexes was measured as a function of pH. An excess of each derivative was placed into suitable stoppered containers. […] The samples were immersed in a water bath thermostatized at 37 ± 1^◦C and 100 rpm and periodically shaken for 48 h. Once the equilibrium was reached, the pH of the supernatant was regarded.

[2] = test system: C. albicans (ATCC 10,231); assay: Antifungal MIC, agar cup diffusion method; format: cell-based, Candida albicans; details: Sabouraud agar, 37 °C; for MIC: Candida albicans, ATCC 10,231, 24 h, read-out: MIC C. albicans (Fungi); for MIC C. albicans (Fungi): 24 h
Procedure: The antibacterial and antifungal activities of compounds, ketone 1, 2a-j, and 5a-i were evaluated in vitro against S. aureus (ATCC 6538), P. aeruginosa (ATCC 10,145), E. coli (ATCC 8739), and C. albicans (ATCC 10,231). […] The antifungal activity of compounds 1, 2a-j, and 5a-i and ketoconazole were determined according to the agar cup diffusion method at Deraya University, Faculty of Pharmacy, Department of Microbiology.
Fungal strains and culture conditions. […] Standard strain of Candida albicans (ATCC 10,231) was obtained from microbiological resource center, Faculty of Agriculture, Ain Shams University, Cairo, Egypt. The isolate was maintained at -70 °C in Trypticase Soya Broth (TSB, Becton, and Dickinson) with 10% glycerol. Prior to inoculation, the isolate was subcultured at 37 °C for 24 h on Trypticase Soya Agar (TSA, Becton, and Dickinson) and TSB, respectively.
as §2

E. coli (ATCC 8739) = assay: Antibacterial MIC, standard agar cup diffusion method; format: cell-based; details: Escherichia coli, ATCC8739, 37 °C, 24 h, read-out: MIC E. coli (Gram-negative)
Procedure: as §1, §2

[3] = test system: P. aeruginosa (ATCC 10,145); assay: as above; format: cell-based; details: Pseudomonas aeruginosa, ATCC 10145, 37 °C, 24 h, read-out: MIC P. aeruginosa (Gram-negative)
Procedure: as §1, §2

physchem = details: pH 7.8
Procedure: The n-octanol/water apparent partition coefficient at the isoelectric point (or distribution constant) was measured by using the traditional shake-flask technique. The pH of the aqueous buffer was first adjusted to isoelectric point of the compound. The n-octanol and aqueous phases were then mutually saturated before the measurement. […] The samples were agitated for 5h at water bath shaker thermostatized at 25 ± 1^◦C and 100 rpm. The concentration of the solute was determined in the aqueous and organic phases at the isoelectric point by UV spectroscopy the log p value was calculated as follows: […].

S. aureus DNA gyrase = S. aureus DNA gyrase (Staphylococcus aureus, UniProt P0A0K8+P20831); assay: Staphylococcus aureus DNA gyrase supercoiling assay; format: biochemical; details: supercoiling of relaxed pBR322, 37 °C, 30 min; read-out: S. aureus DNA gyrase IC50 ± SD
Chain of S. aureus DNA gyrase (P20831 whole entry): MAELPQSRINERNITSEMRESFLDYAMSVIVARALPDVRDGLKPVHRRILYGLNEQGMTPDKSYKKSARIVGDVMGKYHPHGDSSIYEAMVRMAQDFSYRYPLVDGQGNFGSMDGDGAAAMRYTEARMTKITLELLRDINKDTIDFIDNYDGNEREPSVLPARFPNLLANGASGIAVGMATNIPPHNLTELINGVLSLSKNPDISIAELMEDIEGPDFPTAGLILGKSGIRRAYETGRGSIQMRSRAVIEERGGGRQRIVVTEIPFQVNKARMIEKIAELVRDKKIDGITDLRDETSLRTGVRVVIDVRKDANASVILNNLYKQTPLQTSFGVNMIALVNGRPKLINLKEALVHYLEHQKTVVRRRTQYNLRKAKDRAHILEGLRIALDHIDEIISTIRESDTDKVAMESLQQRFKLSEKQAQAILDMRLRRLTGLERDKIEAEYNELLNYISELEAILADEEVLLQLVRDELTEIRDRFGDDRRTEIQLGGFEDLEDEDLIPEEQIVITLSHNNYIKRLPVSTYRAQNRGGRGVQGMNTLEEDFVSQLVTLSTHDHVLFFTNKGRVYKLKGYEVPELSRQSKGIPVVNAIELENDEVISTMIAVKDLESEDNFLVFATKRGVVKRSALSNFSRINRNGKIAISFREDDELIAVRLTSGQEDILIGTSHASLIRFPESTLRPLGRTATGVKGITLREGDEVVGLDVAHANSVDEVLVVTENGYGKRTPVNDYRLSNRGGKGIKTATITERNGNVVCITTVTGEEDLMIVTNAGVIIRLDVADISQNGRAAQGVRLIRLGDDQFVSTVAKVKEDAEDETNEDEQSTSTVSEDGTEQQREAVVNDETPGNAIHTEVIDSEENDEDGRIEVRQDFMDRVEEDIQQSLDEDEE
Chain of S. aureus DNA gyrase (P0A0K8 whole entry): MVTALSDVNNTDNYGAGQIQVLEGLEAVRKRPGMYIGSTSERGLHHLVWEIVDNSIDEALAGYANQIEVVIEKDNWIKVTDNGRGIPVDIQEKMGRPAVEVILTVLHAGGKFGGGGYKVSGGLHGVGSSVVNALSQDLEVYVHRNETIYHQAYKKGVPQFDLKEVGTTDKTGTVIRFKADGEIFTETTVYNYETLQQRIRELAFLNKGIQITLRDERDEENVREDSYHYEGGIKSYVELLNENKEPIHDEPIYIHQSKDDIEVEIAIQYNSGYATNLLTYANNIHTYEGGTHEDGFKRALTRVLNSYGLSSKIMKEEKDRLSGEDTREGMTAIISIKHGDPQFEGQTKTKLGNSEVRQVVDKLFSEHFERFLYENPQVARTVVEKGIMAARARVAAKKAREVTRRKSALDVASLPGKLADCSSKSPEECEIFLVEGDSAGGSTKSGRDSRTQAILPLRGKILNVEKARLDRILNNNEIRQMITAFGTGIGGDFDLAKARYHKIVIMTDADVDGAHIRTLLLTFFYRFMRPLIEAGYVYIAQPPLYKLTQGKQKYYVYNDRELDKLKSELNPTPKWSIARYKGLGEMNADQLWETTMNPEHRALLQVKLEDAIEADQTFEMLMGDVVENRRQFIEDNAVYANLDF
Procedure: As antibacterial agents, fluoroquinolones act by targeting and inhibiting DNA gyrase (topo II) which is an essential enzyme involved in the DNA replication process.
Staphylococcus aureus DNA gyrase was incubated at 37 °C for 30 min in a total reaction volume of 30 μl containing 40 mM HEPES. KOH (pH 7.6), 10 mM magnesium acetate, 10 mM DTT, 2 mM ATP, 500 mM potassium glutamate, 0.05 mg/ml albumin and Relaxed pBR322. DNA gyrase supercoiling reactions catalyzed by S. aureus gyrase, Stop reaction by adding 30 μL of STEB and 30 μL of chloroform/isoamyl alcohol (v:v, 24:1),and then Vortex briefly ~ 5 secs and centrifuge for 1 min. after which 20 µL of this was loaded on a 1% agarose gel that was then run at ~ 75 V for approximately 2 h. The gel was stained by (0.5 mg/L) ethidium bromide in water. Fluorescent images were taken at a wavelength of 300 nm on a UV transilluminator imaging system. The fluorescence intensity of the supercoiled plasmid reaction product was quantitated using ImagQuant software (Molecular Dynamics).

[4] = phosphate buffer pH 6.8, 37 °C, read-out: Solubility pH 6.8
[5] = phosphate buffer pH 7.8, 37 °C, read-out: Solubility pH 7.8

| Structure (SMILES) | MIC (S. aureus (ATCC 6538)) | solubility at 48 h [1, 4] | solubility at 48 h [1, 5] | MIC [2] | MIC (E. coli (ATCC 8739)) | MIC [3] | Lipophilicity (log p) (physchem) | logD (physchem) | IC50 (S. aureus DNA gyrase) | MIC C. albicans (Fungi) [2] | melting point |
| --- | --- | --- | --- | --- | --- | --- | --- | --- | --- | --- | --- |
| COc1ccc(/C=C/C(=O)c2ccc(NC(=O)N3CCN(c4cc5c(cc4F)c(=O)c(C(=O)O)cn5C4CC4)CC3)cc2)cc1OC [Compound 2i] | 6.3 µg/mL (≈ 9.83 µM) | 150 µg/mL (≈ 234 µM) | 190 µg/mL (≈ 297 µM) | > 100 µg/mL | 4.13 µg/mL (≈ 6.45 µM) | 17 µg/mL (≈ 26.5 µM) | − 0.06 |  |  |  |  |
| COc1cc(/C=C/C(=O)c2ccc(NC(=O)N3CCN(c4cc5c(cc4F)c(=O)c(C(=O)O)cn5C4CC4)CC3)cc2)cc(OC)c1OC [Compound 2j] | 1.48 µg/mL (≈ 2.21 µM) | 180 µg/mL (≈ 268 µM) | 150 µg/mL (≈ 224 µM) | > 100 µg/mL | 5.13 µg/mL (≈ 7.65 µM) | 4.2 µg/mL (≈ 6.26 µM) |  | 0.34 |  |  |  |
| N#Cc1c(-c2ccc(Cl)cc2)nc(SCC(=O)N2CCN(c3cc4c(cc3F)c(=O)c(C(=O)O)cn4C3CC3)CC2)[nH]c1=O [Compound 5c, 7-(4-(2-((4-(4-Chlorophenyl)-5-cyano-6-oxo-1,6-dihydropyrimidin-2-yl)thio)acetyl)piperazin-1-yl)-1-cyclopropyl-6-fluoro-4-oxo-1,4-dihydroquinoline-3-carboxylic acid] | 0.58 µg/mL (≈ 0.913 µM) |  |  | 2.03 to 3.89 µg/mL (≈ 3.2 to 6.13 µM) | 1.03 µg/mL (≈ 1.62 µM) | 2.04 µg/mL (≈ 3.21 µM) |  |  | 1570 ± 80 nM | 2.87 µg/mL (≈ 4.52 µM) | 253 to 256 °C |
| N#Cc1c(-c2ccc(Br)cc2)nc(SCC(=O)N2CCN(c3cc4c(cc3F)c(=O)c(C(=O)O)cn4C3CC3)CC2)[nH]c1=O [Compound 5d, 7-(4-(2-((4-(4-Bromophenyl)-5-cyano-6-oxo-1,6-dihydropyrimidin-2-yl)thio)acetyl)piperazin-1-yl)-1-cyclopropyl-6-fluoro-4-oxo-1,4-dihydroquinoline-3-carboxylic acid] | 8.14 µg/mL (≈ 12 µM) |  |  | 36.1 µg/mL (≈ 53.2 µM) | 42.2 µg/mL (≈ 62.1 µM) | 12.3 µg/mL (≈ 18.1 µM) |  |  |  |  | 284 to 285 °C |
| N#Cc1c(-c2ccc(F)cc2)nc(SCC(=O)N2CCN(c3cc4c(cc3F)c(=O)c(C(=O)O)cn4C3CC3)CC2)[nH]c1=O [Compound 5e, 7-(4-(2-((4-(4-Fluorophenyl)-5-cyano-6-oxo-1,6-dihydropyrimidin-2-yl)thio)acetyl)piperazin-1-yl)-1-cyclopropyl-6-fluoro-4-oxo-1,4-dihydroquinoline-3-carboxylic acid] | 0.78 µg/mL (≈ 1.26 µM) |  |  | 2.03 to 3.89 µg/mL (≈ 3.28 to 6.29 µM) | 0.52 µg/mL (≈ 0.841 µM) | 3.25 µg/mL (≈ 5.25 µM) |  |  | 1010 ± 50 nM | 2.51 µg/mL (≈ 4.06 µM) | 242 to 245 °C |
| Cc1ccc(-c2nc(SCC(=O)N3CCN(c4cc5c(cc4F)c(=O)c(C(=O)O)cn5C4CC4)CC3)[nH]c(=O)c2C#N)cc1 [Compound 5f] | 4.79 µg/mL (≈ 7.79 µM) |  |  | > 100 µg/mL | 3.89 µg/mL (≈ 6.33 µM) | 2.95 µg/mL (≈ 4.8 µM) |  |  | 3500 ± 190 nM |  | 264 to 267 °C |
| COc1ccc(-c2nc(SCC(=O)N3CCN(c4cc5c(cc4F)c(=O)c(C(=O)O)cn5C4CC4)CC3)[nH]c(=O)c2C#N)cc1 [Compound 5g, 7-(4-(2-((5-Cyano-4-(4-methoxyphenyl)-6-oxo-1,6-dihydropyrimidin-2-yl)thio)acetyl)piperazin-1-yl)-1-cyclopropyl-6-fluoro-4-oxo-1,4-dihydroquinoline-3-carboxylic acid] | 0.28 µg/mL (≈ 0.444 µM) | 740 µg/mL (≈ 1170 µM) | 900 µg/mL (≈ 1430 µM) | > 100 µg/mL | 14.2 µg/mL (≈ 22.6 µM) | 23.1 µg/mL (≈ 36.7 µM) | − 0.09 |  | 7590 ± 400 nM |  | 239 to 242 °C |
| CC(=O)N1CCN(c2ccc(OCC3COC(Cn4ccnc4)(c4ccc(Cl)cc4Cl)O3)cc2)CC1 (stereo not shown) [Ketoconazole, reference compound] |  |  |  | 2.6 µg/mL (≈ 4.89 µM) |  |  |  |  |  |  |  |
